c1ccc2c(c1)sc1ccccc12
solubility (mole fraction)
Conditions | in acetonitrile | in ethanol | in formic acid | in isopropanol | in methanol | in n-butanol
278.15 K | 0.00454 | 0.00347 | 0.000475 | 0.00245 | 0.00126 | 0.00485
283.15 K | 0.00611 | 0.00433 | 0.000578 | 0.00347 | 0.00163 | 0.00621
288.15 K | 0.00845 | 0.00529 | 0.000668 | 0.00436 | 0.00192 | 0.00788
293.15 K | 0.0128 | 0.00619 | 0.000756 | 0.00577 | 0.00242 | 0.00999
298.15 K | 0.0157 | 0.0075 | 0.000881 | 0.00703 | 0.0029 | 0.0132
303.15 K | 0.0189 | 0.00919 | 0.000995 | 0.00874 | 0.00331 | 0.016
308.15 K | 0.0241 | 0.0105 | 0.00112 | 0.0111 | 0.00406 | 0.0192
313.15 K | 0.0321 | 0.0127 | 0.00126 | 0.0136 | 0.00478 | 0.0242
318.15 K | 0.0402 | 0.0148 | 0.0014 | 0.0162 | 0.00573 | 0.0303
323.15 K | 0.0506 | 0.0174 | 0.00157 | 0.0202 | 0.00668 | 0.0381
328.15 K | 0.0639 | 0.0206 | 0.00177 | 0.0249 | 0.00795 | 0.0458

Source: BigSolDB 2.1
